The text below walks through data of patent US10577308B2, “Sodium channel modulators” (The Florey Institute of Neuroscience and Mental Health, priority 2015, dated 2020).

The target of one assay is hNav1.6 (Homo sapiens (Human), UniProt Q9UQD0). Description: Automated patch clamp (IonWorks Quattro) block of hNav1.6 channels in CHO cells. The class given is cell-based. An excerpt:
(§1) FIG. 1 depicts the voltage sequence used to measure inhibitory activity of compounds as described in Example 3. An automated patch clamp screening assay was used to measure the inhibitory effect (potency) of compounds in three conformational states of the sodium channel: (1) the tonic state (TP1); (2) the frequency-dependent (10 Hz) state (TP11) and (3) the inactivated state (TP12).
(§2) Test Protocol for Determining the Potency of Compounds on Nav1.2 and Nav1.6 Subtypes of Voltage-Gated Sodium Ion Channels Expressed in Mammalian Cells
(§3) Cell culture procedures: Chinese hamster ovary (CHO) cells were stably transfected with the cDNA sequence of either the human SCN2A or SCN8A genes to create hNav1.2 or hNav1.6 cells respectively. The cell lines were cultured in Ham's F-12 medium supplemented with 10% fetal bovine serum and antibiotics in a tissue incubator at 37° C. under a humidified air/CO2 mixture (95/5 v/v). On the day of the experiment, cells were washed twice with Hank's balanced salt solution, treated with trypsin, and resuspended in fresh culture media at a density of 4−6×10^6 cells in 20 ml. Immediately before placing in the IonWorks Quattro instrument, cells were washed in Hank's balanced salt solution to remove culture medium and re-suspended in 3 ml of Hank's balanced salt solution.
(§4) Automated patch clamp recordings of cells using the IonWorks Quattro Instrument: The assay used a 384 microwell plate, which enabled 20 compounds to be studied at four different concentrations in quadruplicate as well as allowing a vehicle control group and a positive control group using mexiletine at 8 different concentrations. Cells were added to the wells of the Population Patch Clamp planar electrode using a 48-channel pipettor in a volume of 6 μL, per well. After 5 minutes incubation at ambient temperature with compounds or vehicle, membrane currents were recorded using the patch clamp amplifier. The pulse pattern was repeated twice, before and after compound addition and peak current amplitudes were measured at three test pulses, TP1, TP11 and TP12 to measure Tonic Block, 10 Hz Frequency-dependent Block and Inactivation State Block, respectively.
(§5) Data analysis: Data acquisition and analyses were carried out using the IonWorks Quattro system operation software which uses an algorithm to correct data for leak currents. Concentration-response curves were fitted by non-linear least squares regression allowing calculation of an IC50 value (μM), being the concentration of the compound producing half-maximal inhibition.
In general terms: The patch-clamp technique gives a direct electrical read-out from membranes.

Another assay has as its target hNav1.2 (Homo sapiens (Human), UniProt Q99250). Description: Automated patch clamp (IonWorks Quattro) block of hNav1.2 channels in CHO cells. The class given is cell-based.
Description: as §1, §2, §3, §4, §5

The mark [1] stands for this setting: 10 Hz frequency-dependent block (TP11), read-out: IC50 Nav1.6 10 Hz block.
Setting [2] is: Inactivated state block (TP12), read-out: IC50 Nav1.6 Inactivated state block.
The mark [3] stands for this setting: Tonic block (TP1), read-out: IC50 Nav1.6 Tonic block.
Where [4] appears, read: 10 Hz frequency-dependent block (TP11), read-out: IC50 Nav1.2 10 Hz block.
Setting [5] is: Inactivated state block (TP12), read-out: IC50 Nav1.2 Inactivated state block.
Where [6] appears, read: Tonic block (TP1), read-out: IC50 Nav1.2 Tonic block.

pIC50: −log10 of the molar value. Like-named read-outs stand apart in the source and are kept apart here. Some results are limits rather than exact numbers.

Chain of hNav1.6 (Q9UQD0 whole entry): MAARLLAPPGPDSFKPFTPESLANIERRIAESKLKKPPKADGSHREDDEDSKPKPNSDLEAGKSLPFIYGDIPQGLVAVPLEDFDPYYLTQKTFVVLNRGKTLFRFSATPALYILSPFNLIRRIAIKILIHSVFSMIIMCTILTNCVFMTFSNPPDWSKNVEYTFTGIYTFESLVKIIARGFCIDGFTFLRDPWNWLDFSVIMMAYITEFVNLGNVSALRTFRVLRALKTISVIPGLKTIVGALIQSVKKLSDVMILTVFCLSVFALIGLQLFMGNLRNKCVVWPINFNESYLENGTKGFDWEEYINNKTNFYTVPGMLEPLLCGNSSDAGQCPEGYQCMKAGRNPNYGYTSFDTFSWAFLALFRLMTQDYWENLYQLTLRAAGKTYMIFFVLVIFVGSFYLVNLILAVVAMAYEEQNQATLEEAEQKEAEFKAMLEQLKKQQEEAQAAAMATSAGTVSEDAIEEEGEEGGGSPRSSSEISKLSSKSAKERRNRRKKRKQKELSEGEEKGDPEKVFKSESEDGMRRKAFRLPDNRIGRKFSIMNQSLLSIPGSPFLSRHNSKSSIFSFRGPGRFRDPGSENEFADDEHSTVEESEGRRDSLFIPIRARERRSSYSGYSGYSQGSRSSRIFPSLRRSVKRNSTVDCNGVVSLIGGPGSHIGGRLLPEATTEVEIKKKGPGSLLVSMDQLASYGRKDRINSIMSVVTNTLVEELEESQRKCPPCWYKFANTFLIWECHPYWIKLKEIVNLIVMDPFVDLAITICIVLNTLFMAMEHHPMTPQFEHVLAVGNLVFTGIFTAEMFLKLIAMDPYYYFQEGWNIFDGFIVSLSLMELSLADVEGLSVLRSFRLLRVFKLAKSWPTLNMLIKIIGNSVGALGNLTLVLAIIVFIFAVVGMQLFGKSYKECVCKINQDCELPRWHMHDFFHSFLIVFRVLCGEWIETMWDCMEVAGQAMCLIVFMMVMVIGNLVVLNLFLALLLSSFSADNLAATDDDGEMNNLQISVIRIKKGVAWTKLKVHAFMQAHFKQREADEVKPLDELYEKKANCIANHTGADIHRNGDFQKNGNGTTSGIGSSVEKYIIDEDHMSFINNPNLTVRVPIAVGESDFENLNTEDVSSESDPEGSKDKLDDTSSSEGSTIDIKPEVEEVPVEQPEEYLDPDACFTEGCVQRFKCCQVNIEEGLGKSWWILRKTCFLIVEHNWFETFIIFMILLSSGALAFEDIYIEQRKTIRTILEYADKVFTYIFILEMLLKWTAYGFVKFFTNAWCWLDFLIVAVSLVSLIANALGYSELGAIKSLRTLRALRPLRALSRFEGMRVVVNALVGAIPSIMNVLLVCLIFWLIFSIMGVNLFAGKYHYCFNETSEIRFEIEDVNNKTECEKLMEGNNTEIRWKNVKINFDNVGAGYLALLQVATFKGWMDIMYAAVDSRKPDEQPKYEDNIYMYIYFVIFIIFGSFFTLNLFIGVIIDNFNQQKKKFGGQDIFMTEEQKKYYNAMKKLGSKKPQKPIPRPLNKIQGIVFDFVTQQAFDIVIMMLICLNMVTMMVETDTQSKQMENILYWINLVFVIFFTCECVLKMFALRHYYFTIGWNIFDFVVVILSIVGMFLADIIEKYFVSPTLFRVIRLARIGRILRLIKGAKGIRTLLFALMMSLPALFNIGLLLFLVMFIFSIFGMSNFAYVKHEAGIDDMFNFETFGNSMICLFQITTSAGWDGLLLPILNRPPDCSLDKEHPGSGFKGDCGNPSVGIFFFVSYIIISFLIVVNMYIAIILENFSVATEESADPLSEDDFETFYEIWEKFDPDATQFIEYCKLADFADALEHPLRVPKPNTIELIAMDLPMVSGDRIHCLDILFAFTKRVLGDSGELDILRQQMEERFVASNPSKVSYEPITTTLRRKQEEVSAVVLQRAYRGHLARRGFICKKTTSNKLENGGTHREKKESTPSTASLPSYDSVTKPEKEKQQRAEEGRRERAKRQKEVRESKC
Chain of hNav1.2 (Q99250 whole entry): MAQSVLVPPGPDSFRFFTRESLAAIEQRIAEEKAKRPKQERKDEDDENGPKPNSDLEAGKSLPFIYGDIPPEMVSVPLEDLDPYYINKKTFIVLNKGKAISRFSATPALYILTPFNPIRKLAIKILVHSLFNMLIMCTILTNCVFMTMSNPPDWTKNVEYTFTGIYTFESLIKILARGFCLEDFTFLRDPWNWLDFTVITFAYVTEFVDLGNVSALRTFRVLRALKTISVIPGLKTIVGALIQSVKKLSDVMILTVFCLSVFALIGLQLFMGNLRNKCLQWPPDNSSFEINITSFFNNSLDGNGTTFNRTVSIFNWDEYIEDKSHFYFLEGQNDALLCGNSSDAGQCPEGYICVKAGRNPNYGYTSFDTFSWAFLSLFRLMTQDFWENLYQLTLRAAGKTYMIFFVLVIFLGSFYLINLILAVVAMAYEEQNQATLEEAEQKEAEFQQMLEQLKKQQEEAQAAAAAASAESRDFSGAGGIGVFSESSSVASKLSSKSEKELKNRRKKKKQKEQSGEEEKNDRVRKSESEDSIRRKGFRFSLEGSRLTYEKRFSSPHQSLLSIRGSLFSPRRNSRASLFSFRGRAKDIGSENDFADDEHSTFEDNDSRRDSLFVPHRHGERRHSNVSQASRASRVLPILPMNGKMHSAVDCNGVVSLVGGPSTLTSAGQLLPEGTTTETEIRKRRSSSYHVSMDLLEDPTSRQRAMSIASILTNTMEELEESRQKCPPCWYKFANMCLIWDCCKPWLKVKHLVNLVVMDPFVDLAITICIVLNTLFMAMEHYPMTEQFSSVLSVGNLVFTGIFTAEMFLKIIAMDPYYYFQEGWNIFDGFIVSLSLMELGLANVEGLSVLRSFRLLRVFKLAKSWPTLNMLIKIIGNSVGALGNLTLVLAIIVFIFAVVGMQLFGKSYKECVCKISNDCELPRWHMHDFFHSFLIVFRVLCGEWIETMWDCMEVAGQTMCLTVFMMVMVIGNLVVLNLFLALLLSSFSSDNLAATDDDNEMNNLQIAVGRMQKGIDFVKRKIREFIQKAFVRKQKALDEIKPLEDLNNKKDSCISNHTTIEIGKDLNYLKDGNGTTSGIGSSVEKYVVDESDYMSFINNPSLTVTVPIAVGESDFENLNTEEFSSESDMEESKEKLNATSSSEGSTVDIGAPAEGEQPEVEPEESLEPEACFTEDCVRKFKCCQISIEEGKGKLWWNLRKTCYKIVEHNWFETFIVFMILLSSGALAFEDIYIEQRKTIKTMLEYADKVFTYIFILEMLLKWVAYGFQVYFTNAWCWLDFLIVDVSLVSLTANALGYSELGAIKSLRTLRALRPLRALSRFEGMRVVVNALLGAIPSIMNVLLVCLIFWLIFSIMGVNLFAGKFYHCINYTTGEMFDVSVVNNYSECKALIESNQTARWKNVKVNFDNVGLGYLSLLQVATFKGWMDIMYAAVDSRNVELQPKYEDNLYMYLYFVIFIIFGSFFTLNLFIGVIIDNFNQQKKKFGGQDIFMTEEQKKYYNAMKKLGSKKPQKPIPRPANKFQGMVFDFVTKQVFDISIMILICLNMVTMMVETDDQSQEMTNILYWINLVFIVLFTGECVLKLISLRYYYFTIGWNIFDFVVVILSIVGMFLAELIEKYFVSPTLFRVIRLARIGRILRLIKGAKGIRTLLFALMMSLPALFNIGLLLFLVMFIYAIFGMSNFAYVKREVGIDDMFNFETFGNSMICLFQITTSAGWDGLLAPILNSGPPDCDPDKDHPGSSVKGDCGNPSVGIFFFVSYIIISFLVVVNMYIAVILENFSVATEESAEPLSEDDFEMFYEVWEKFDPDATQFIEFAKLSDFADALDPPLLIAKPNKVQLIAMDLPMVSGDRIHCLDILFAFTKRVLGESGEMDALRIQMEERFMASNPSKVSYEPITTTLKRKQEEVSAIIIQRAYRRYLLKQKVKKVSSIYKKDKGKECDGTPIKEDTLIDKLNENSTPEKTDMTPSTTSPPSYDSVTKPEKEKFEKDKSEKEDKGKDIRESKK

The term pIC50 denotes the IC50 on a negative log10 scale, so that one unit is a factor of ten. “3-(2,6-Dimethylphenoxy)-N-(3-(trifluoromethyl)benzyl)propan-1-amine [Compound 533]”: the pIC50 is 5.37 on hNav1.6 (setting [1]); 5.64 at hNav1.6 (setting [2]); 5.15 on hNav1.6 (setting [3]); 5.21 on hNav1.2 (setting [4]); 5.70 on hNav1.2 (setting [5]); approximately 5.00 on hNav1.2 (setting [6]).

Turning to “3-((3-(2,6-Dimethylphenoxy)propylamino)methyl)benzonitrile [Compound 524]”, the pIC50 is 5.41 at hNav1.6 (setting [1]); less than 5.00 on hNav1.6 (setting [2]); 5.11 at hNav1.6 (setting [3]); 5.02 at hNav1.2 (setting [4]); less than 5.00 at hNav1.2 (setting [5]); less than 5.00 at hNav1.2 (setting [6]).

As to `Cc1cccc(C)c1OCCCNCc1cc(Cl)c(O)c(Cl)c1` [Compound 504, 2,6-Dichloro-4-((3-(2,6-dimethylphenoxy)propylamino)methyl)phenol], the pIC50 at hNav1.6 (setting [1]) is less than 5.00; on hNav1.6 (setting [2]), less than 5.00; on hNav1.6 (setting [3]) it was less than 5.00; at hNav1.2 (setting [4]) it was less than 5.00; at hNav1.2 (setting [5]), 5.36; on hNav1.2 (setting [6]) it was less than 5.00.

Turning to `Cc1cccc(C)c1OCCCNCc1ccccc1` [Compound 518, N-Benzyl-3-(2,6-dimethylphenoxy)propan-1-amine], the pIC50 on hNav1.6 (setting [1]) was 5.54; on hNav1.6 (setting [2]), 5.70; on hNav1.6 (setting [3]), 5.28; at hNav1.2 (setting [4]) it was 5.74; on hNav1.2 (setting [5]), 6.30; on hNav1.2 (setting [6]), 5.48.

Regarding `Cc1cccc(C)c1OCCCNCc1ccc(C#N)cc1` [Compound 519, 4-((3-(2,6-Dimethylphenoxy)propylamino)methyl)benzonitrile], the negative-log IC50 (pIC50) on hNav1.6 (setting [1]) is 5.47; at hNav1.6 (setting [2]) it was 5.74; at hNav1.6 (setting [3]) it was 5.25; on hNav1.2 (setting [4]), 5.08; at hNav1.2 (setting [5]) it was 5.68; at hNav1.2 (setting [6]), less than 5.00.

Consider `COc1ccc(CNCCCOc2c(C)cccc2C)cc1` [Compound 520, 3-(2,6-Dimethylphenoxy)-N-(4-methoxybenzyl)propan-1-amine], for which the pIC50 on hNav1.6 (setting [1]) is 5.59; at hNav1.6 (setting [2]), 5.82; at hNav1.6 (setting [3]), 5.31; on hNav1.2 (setting [4]), 5.68; at hNav1.2 (setting [5]) it was 6.00; at hNav1.2 (setting [6]), 5.20.

Consider `Cc1cccc(C)c1OCCCNCc1ccc(F)cc1` [Compound 521, 3-(2,6-Dimethylphenoxy)-N-(4-fluorobenzyl)propan-1-amine], for which the pIC50 is 5.66 on hNav1.6 (setting [1]); 5.85 on hNav1.6 (setting [2]); 5.35 on hNav1.6 (setting [3]); 5.08 on hNav1.2 (setting [4]); 5.55 on hNav1.2 (setting [5]); approximately 4.99 on hNav1.2 (setting [6]).

For `Cc1cccc(C)c1OCCCNCc1ccc(-c2ccccc2)cc1` [Compound 522, N-(Biphenyl-4-ylmethyl)-3-(2,6-dimethylphenoxy)propan-1-amine], the pIC50 at hNav1.6 (setting [1]), on hNav1.6 (setting [2]), on hNav1.6 (setting [3]), on hNav1.2 (setting [4]), on hNav1.2 (setting [5]) and at hNav1.2 (setting [6]) was less than 3.00 throughout.

For `Cc1cccc(C)c1OCCCNCc1ccccn1` [Compound 523, 3-(2,6-Dimethylphenoxy)-N-(pyridin-2-ylmethyl)propan-1-amine], the negative-log IC50 (pIC50) on hNav1.6 (setting [1]) was 5.12; at hNav1.6 (setting [2]), 5.70; at hNav1.6 (setting [3]), less than 5.00; at hNav1.2 (setting [4]) it was approximately 5.00; on hNav1.2 (setting [5]), 5.38; at hNav1.2 (setting [6]) it was less than 5.00.

Turning to `COc1cccc(CNCCCOc2c(C)cccc2C)c1` [Compound 525, 3-(2,6-Dimethylphenoxy)-N-(3-methoxybenzyl)propan-1-amine], the pIC50 was 5.49 on hNav1.6 (setting [1]); 5.74 at hNav1.6 (setting [2]); 5.10 on hNav1.6 (setting [3]); 5.82 on hNav1.2 (setting [4]); 6.40 on hNav1.2 (setting [5]); 5.32 on hNav1.2 (setting [6]).

Regarding `Cc1cccc(C)c1OCCCNCc1ccc(C(F)(F)F)cc1` [Compound 526], the pIC50 was 5.33 at hNav1.6 (setting [1]); 5.64 on hNav1.6 (setting [2]); 5.16 on hNav1.6 (setting [3]); 5.02 on hNav1.2 (setting [4]); 5.46 at hNav1.2 (setting [5]); less than 5.00 on hNav1.2 (setting [6]).

Take `Cc1cccc(C)c1OCCCNCc1cccnc1` [Compound 528, 3-(2,6-Dimethylphenoxy)-N-(pyridin-3-ylmethyl)propan-1-amine]: the negative logarithm of the IC50 (pIC50) was 4.91 on hNav1.6 (setting [1]); 5.33 on hNav1.6 (setting [2]); 4.50 at hNav1.6 (setting [3]); 4.88 on hNav1.2 (setting [4]); 5.32 on hNav1.2 (setting [5]); 4.46 on hNav1.2 (setting [6]).

Regarding `COc1ccccc1CNCCCOc1c(C)cccc1C` [Compound 530, 3-(2,6-Dimethylphenoxy)-N-(2-methoxybenzyl)propan-1-amine], the pIC50 is 5.77 on hNav1.6 (setting [1]); 6.10 at hNav1.6 (setting [2]); 5.54 on hNav1.6 (setting [3]); 5.54 at hNav1.2 (setting [4]); 5.96 on hNav1.2 (setting [5]); 5.11 on hNav1.2 (setting [6]).

For `Cc1cccc(C)c1OCCCNCc1ccc(OC(F)(F)F)cc1` [Compound 531, 3-(2,6-Dimethylphenoxy)-N-(4-(trifluoromethoxy)benzyl)propan-1-amine], the pIC50 at hNav1.6 (setting [1]) was 4.25; on hNav1.6 (setting [2]) it was 4.39; at hNav1.6 (setting [3]) it was 3.86; at hNav1.2 (setting [4]), 5.44; at hNav1.2 (setting [5]) it was 5.85; on hNav1.2 (setting [6]) it was 4.90.

Consider `Cc1cccc(C)c1OCCCNCc1ccc(S(N)(=O)=O)cc1` [Compound 532, 4-((3-(2,6-Dimethylphenoxy)propylamino)methyl)benzenesulfonamide], for which the pIC50 is less than 5.00 at hNav1.6 (setting [1]); 5.07 at hNav1.6 (setting [2]); less than 5.00 at hNav1.6 (setting [3]); less than 5.00 on hNav1.2 (setting [4]); 5.21 at hNav1.2 (setting [5]); less than 5.00 at hNav1.2 (setting [6]).

Turning to `Cc1cccc(C)c1OCCCNCc1ccccc1C(F)(F)F` [Compound 534, 3-(2,6-Dimethylphenoxy)-N-(2-(trifluoromethyl)benzyl)propan-1-amine], the pIC50 is 5.39 on hNav1.6 (setting [1]); 5.64 at hNav1.6 (setting [2]); 5.09 at hNav1.6 (setting [3]); 5.15 at hNav1.2 (setting [4]); 5.68 on hNav1.2 (setting [5]); less than 5.00 on hNav1.2 (setting [6]).

With `Cc1cccc(C)c1OCCCNCc1cccc(-c2ccccc2)c1` [Compound 535, N-(Biphenyl-3-ylmethyl)-3-(2,6-dimethylphenoxy)propan-1-amine], the pIC50 at hNav1.6 (setting [1]) is less than 3.00; at hNav1.6 (setting [2]), less than 3.00; at hNav1.6 (setting [3]), less than 3.00; on hNav1.2 (setting [4]), 4.68; at hNav1.2 (setting [5]) it was 5.15; at hNav1.2 (setting [6]), 4.18.

Take `Cc1cccc(C)c1OCCCNCc1ccccc1-c1ccccc1` [Compound 536, N-(Biphenyl-2-ylmethyl)-3-(2,6-dimethylphenoxy)propan-1-amine]: the pIC50 at hNav1.6 (setting [1]) was 5.43; at hNav1.6 (setting [2]), 5.89; on hNav1.6 (setting [3]), 4.67; on hNav1.2 (setting [4]) it was 5.77; at hNav1.2 (setting [5]), 6.40; on hNav1.2 (setting [6]) it was less than 4.52.

In the case of `Cc1cccc(C)c1OCCCNCc1noc(C(C)C)n1` [Compound 538, 3-(2,6-Dimethylphenoxy)-N-((5-isopropyl-1,2,4-oxadiazol-3-yl)methyl)propan-1-amine], the pIC50 on hNav1.6 (setting [1]) is less than 5.00; at hNav1.6 (setting [2]), less than 5.00; at hNav1.6 (setting [3]) it was less than 5.00; on hNav1.2 (setting [4]), less than 5.00; at hNav1.2 (setting [5]), approximately 4.99; on hNav1.2 (setting [6]) it was less than 5.00.
